How the values were obtained:
SNU-719 cells = assay: Growth proliferation, viability, apoptosis, cell cycle and clonogenic assays in SNU-719 cells; format: cell-based
Procedure: Growth proliferation assay. SNU-719 HA-dCas9-Tet-on-PUFa-p65HSF1-BZLF1 gRNA (3) or C666-1 HA-dCas9-Tet-on-PUFa-p65HSF1-BZLF1 gRNA (A5) cells were seeded into individual wells of a 96-well plate for at 1×10^5 cells per well the day before being treated with 1 μg/mL DOX and Ganciclovir (GCV). Cells were counted with the cell counting kit-8 (CCK-8, Sigma) at day 6, day 7, and day 8 (FIGS. 8H-8I).
Active caspase-3 analysis. To detect the apoptosis in DOX treated dCas9-Tet on-p65HSF1-BZLF1sgRNA3 SNU719 and C17 cells, active caspase-3 apoptosis kit (BD Pharmingen #550914) was used. Untreated and treated cells were trypsinized and then fixed with fixation buffer in ice for 20 mins and washed with washing buffer twice. Cells were then stained with the PE conjugated rabbit anti active caspase-3 antibody in dark for 30 mins. Stained cells were collected with BD LSRFortessa.
Cell cycle analysis. After 96 hours from induction of DOX, dCas9-Tet on-p65HSF1-BZLF1sgRNA3 SNU719 and C17 cells were trypsinized and then fixed with 75% cold ethanol for 2 hrs at −20° C. Cells were washed three times with cold PBS and then resuspended in PBS containing 100 μg/mL RNase A and 10 μg/mL propidium iodide for 10 min at room temperature. Stained cells were collected with BD LSRFortessa.
Clonogenic assays. Cells were seeded at a density of 500 cells/well in 6-well plates the day before treatment. Then cells were stained with 0.5% crystal violet 14 days after treatment, and at least 50 cells were considered as a single colony

BZLF1 [1] = assay: p65HSF1 and BZLF1 sgRNA transfection into C666-1 cells stably expressing HA-dCas9-EGFP; format: cell-based, Epstein-Barr virus (EBV); conditions: compared among BZLF1 sgRNAs
Procedure: (§1) SNU-719 and C666-1 cells stably expressing HA-dCas9-EGFP were cultivated in RPMI-1640 (Sigma) with 10% fetal bovine serum (FBS) (Gibco) and 1% GlutaMAX (Gibco) and cultured in a 37° C. incubator with 5% CO2. EBV reactivation experiments were conducted with cells seeded into 6-well plates at 2×10^6 cells per well the day before transfection. 1 microgram (μg) of p65HSF1 and 1 microgram (μg) of control sgRNA or individual BZLF1 sgRNA1 (SEQ ID NO: 8), sgRNA2 (SEQ ID NO: 9), sgRNA 3 (SEQ ID NO: 10), or sgRNA4 (SEQ ID NO: 11) were transfected into cells with Lipofectamine 2000 (Invitrogen). After transfection, cells were grown for 48 hours and harvested for FACS, protein extraction, or RNA extraction (FIGS. 14A-14C). […] The expression of EBV immediate early protein BRLF1 (Rta) and early protein BGLF4 (PK) were also detectable (FIG. 14B).

BZLF1 [2] = assay: p65HSF1 and BZLF1 sgRNA transfection into SNU-719 cells stably expressing HA-dCas9-EGFP; format: cell-based, Epstein-Barr virus (EBV); conditions: compared among BZLF1 sgRNAs
Procedure: as §1

“BZLF1 gRNA (A5): BZLF1 gRNA spacer sequence SEQ ID NO: 10, GAAACTATGCATGAGCCAC (chemistry not given here)” was tested, and the “cell cycle by flow cytometry” value (SNU-719 cells; SNU719, DOX induced, FIG. 17B) was “sub G1 phase accumulation and S phase decrease”, the monolayer colony formation (SNU-719 cells; SNU719, after DOX induction, FIG. 17E) was “dramatic suppression” and the “cell proliferation, apoptosis and growth of cells in vitro” value (SNU-719 cells; SNU-719, DOX-induced EBV reactivation) was “suppressed the cell proliferation, induced apoptosis, and slowed the growth of cells”. The “slowing of growth rate of cells compared with cells treated with ganciclovir (GCV) alone” value (SNU-719 cells; SNU-719, EBV reactivation by 1 μg/mL DOX, FIG. 8I) was “greater than 4 fold”, the “expression level of BZLF1 in protein and RNA samples” value (BZLF1 [1]) was “highest expression level of BZLF1” and the “expression level of BZLF1 in protein and RNA samples” value (BZLF1 [2]) was “highest expression level of BZLF1”.
